Results as given in patent publication US11267825B2 (AICURIS GMBH & CO. KG, priority 2017, dated 2022).

Columns and labels:
HBV core protein = HBV core protein (UniProt P03146); type: biochemical; conditions: read-out: Assembly Activity (IC50); BODIPY-FL labelled core protein, assembly started with NaCl, read after 6 min
How it was run: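 Fluorescence-quenching assembly assay using E. coli-expressed core protein 1–149 plus Cys150, labelled with BODIPY-FL maleimide, at 1.0–2.0 μM in 50 mM HEPES pH 7.5, 0.5% DMSO. Assembly started with NaCl to […]; fluorescence (ex 477/em 525 nm) read after 6 min. EC50 by non-linear regression, 8-point 0.5-log dilutions.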

HBV = assay: Determination of HBV DNA from the supernatants of HepAD38 cells (anti-HBV activity); type: cell-based, hepatitis B virus; conditions: Hepatitis B virus, 144 h; HBV DNA in HepAD38 supernatant at day 6; read-out: Cell Activity (EC50)
How it was run: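 HepAD38 cells (60,000/well) were treated with half-log compound dilutions in tetracycline-free medium to induce HBV production. On day 6, HBV DNA was purified from filtered supernatant and quantified by real-time PCR against plasmid standards. EC50 values came from non-linear regression of relative copy numbers, typically from three experiments in triplicate.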

Sequence of HBV core protein (P03146 whole entry, looked up): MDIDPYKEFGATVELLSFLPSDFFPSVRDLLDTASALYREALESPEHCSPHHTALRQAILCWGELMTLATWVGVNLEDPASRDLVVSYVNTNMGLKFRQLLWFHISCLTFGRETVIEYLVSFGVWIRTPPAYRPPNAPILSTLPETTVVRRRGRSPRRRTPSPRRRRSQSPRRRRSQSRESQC

Row | SMILES | IC50 (HBV core protein) [µM] | EC50 (HBV) [µM]
1 | O=C(c1cc2ccccc2[nH]1)N1CCc2nc(CNCC3(CO)CC3)sc2C1 [Example 41, {1-[({[5-(1H-indole-2-carbonyl)-4H,5H,6H,7H-[1,3]thiazolo[5,4-c]pyridin-2-yl]methyl}amino)methyl]cyclopropyl}methanol] | < 100 | 1 to 10
2 | Nc1nc2c(s1)CN(C(=O)c1cc3c(Cl)cc(F)cc3[nH]1)CC2 [Example 167, 5-(4-chloro-6-fluoro-1H-indole-2-carbonyl)-4H,5H,6H,7H-[1,3]thiazolo[5,4-c]pyridin-2-amine] | < 5 | < 1
3 | Cc1cccc2[nH]c(C(=O)N3CCc4nc(N(C)C)sc4C3)cc12 [Example 88, N,N-dimethyl-5-(4-methyl-1H-indole-2-carbonyl)-4H,5H,6H,7H-[1,3]thiazolo[5,4-c]pyridin-2-amine] | < 100 | 1 to 10
4 | Nc1nc2c(s1)CN(C(=O)c1cc3c(C(F)F)ccc(F)c3[nH]1)CC2 [Example 341, 5-[4-(difluoromethyl)-7-fluoro-1H-indole-2-carbonyl]-4H,5H,6H,7H-[1,3]thiazolo[5,4-c]pyridin-2-amine] | < 5 | 1 to 10
5 | O=C(c1cc2ccccc2[nH]1)N1CCc2nc(NCC(CO)CC3CC3)sc2C1 (stereo not drawn) [Example 282, 2-(cyclopropylmethyl)-3-{[5-(1H-indole-2-carbonyl)-4H,5H,6H,7H-[1,3]thiazolo[5,4-c]pyridin-2-yl]amino}propan-1-ol] | 5 to 10 | < 1
6 | CN1CCOCC1CNc1nc2c(s1)CN(C(=O)c1cc3ccccc3[nH]1)CC2 (stereo not drawn) [Example 294, 5-(1H-indole-2-carbonyl)-N-[(4-methylmorpholin-3-yl)methyl]-4H,5H,6H,7H-[1,3]thiazolo[5,4-c]pyridin-2-amine] | < 5 | < 1
7 | O=C(c1cc2ccccc2[nH]1)N1CCc2nc(CNC3CC3)sc2C1 [Example 38, N-{[5-(1H-indole-2-carbonyl)-4H,5H,6H,7H-[1,3]thiazolo[5,4-c]pyridin-2-yl]methyl}cyclopropanamine] | < 5 | < 1
8 | COC1(CNc2nc3c(s2)CN(C(=O)c2cc4ccccc4[nH]2)CC3)CCC1 [Example 414, 5-(1H-indole-2-carbonyl)-N-[(1-methoxycyclobutyl)methyl]-4H,5H,6H,7H-[1,3]thiazolo[5,4-c]pyridin-2-amine] | < 5 | < 1
9 | CCc1ccc(F)c2[nH]c(C(=O)N3CCc4nc(NCC5(CO)CC5)sc4C3)cc12 [Example 236, [1-({[5-(4-ethyl-7-fluoro-1H-indole-2-carbonyl)-4H,5H,6H,7H-[1,3]thiazolo[5,4-c]pyridin-2-yl]amino}methyl)cyclopropyl]methanol] | < 5 | < 1
10 | CCc1cccc2[nH]c(C(=O)N3CCc4nc(N[C@H]5CC[C@@H](O)CC5)sc4C3)cc12 [Example 335, (1s,4s)-4-{[5-(4-ethyl-1H-indole-2-carbonyl)-4H,5H,6H,7H-[1,3]thiazolo[5,4-c]pyridin-2-yl]amino}cyclohexan-1-ol] | < 5 | < 1
11 | CC(F)(F)c1cc(F)cc2[nH]c(C(=O)N3CCc4nc(NCC5CCOC5)sc4C3)cc12 (stereo not drawn) [Example 327, 5-[4-(1,1-difluoroethyl)-6-fluoro-1H-indole-2-carbonyl]-N-[(oxolan-3-yl)methyl]-4H,5H,6H,7H-[1,3]thiazolo[5,4-c]pyridin-2-amine] | < 5 | < 1
12 | O=C(c1cc2ccccc2[nH]1)N1CCc2nc(N[C@H]3CCCC[C@@H]3O)sc2C1 [Example 47, (1S,2S)-2-{[5-(1H-indole-2-carbonyl)-4H,5H,6H,7H-[1,3]thiazolo[5,4-c]pyridin-2-yl]amino}cyclohexan-1-ol] | < 5 | < 1
13 | O=C(c1cc2c(F)c(F)ccc2[nH]1)N1CCc2nc(NC3(CO)CCC3)sc2C1 [Example 222, (1-{[5-(4,5-difluoro-1H-indole-2-carbonyl)-4H,5H,6H,7H-[1,3]thiazolo[5,4-c]pyridin-2-yl]amino}cyclobutyl)methanol] | < 5 | < 1
14 | COC1COCCC1Nc1nc2c(s1)CN(C(=O)c1cc3ccccc3[nH]1)CC2 (stereo not drawn) [Example 231, 5-(1H-indole-2-carbonyl)-N-(3-methoxyoxan-4-yl)-4H,5H,6H,7H-[1,3]thiazolo[5,4-c]pyridin-2-amine] | 5 to 10 | < 1
15 | CS(=O)(=O)Nc1nc2c(s1)CN(C(=O)c1cc3ccccc3[nH]1)CC2 [Example 24, N-[5-(1H-indole-2-carbonyl)-4H,5H,6H,7H-[1,3]thiazolo[5,4-c]pyridin-2-yl]methanesulfonamide] | < 100 | 1 to 10
16 | CC(C)(C)NC(=O)Nc1nc2c(s1)CN(C(=O)c1cc3c(Cl)cc(F)cc3[nH]1)CC2 [Example 265, 3-tert-butyl-1-[5-(4-chloro-6-fluoro-1H-indole-2-carbonyl)-4H,5H,6H,7H-[1,3]thiazolo[5,4-c]pyridin-2-yl]urea] | < 100 | < 1
17 | O=C(Nc1nc2c(s1)CN(C(=O)c1cc3ccccc3[nH]1)CC2)C1CCOCC1 [Example 2, N-[5-(1H-indole-2-carbonyl)-4H,5H,6H,7H-[1,3]thiazolo[5,4-c]pyridin-2-yl]oxane-4-carboxamide] | < 5 | < 1
18 | Nc1nc2c(s1)CN(C(=O)c1cc3cc(Cl)ccc3[nH]1)CC2 [Example 155, 5-(5-chloro-1H-indole-2-carbonyl)-4H,5H,6H,7H-[1,3]thiazolo[5,4-c]pyridin-2-amine] | < 5 | 1 to 10
19 | O=C(c1cc2c(C(F)F)cccc2[nH]1)N1CCc2nc(NCC3(O)CCC3)sc2C1 [Example 408, 1-[({5-[4-(difluoromethyl)-1H-indole-2-carbonyl]-4H,5H,6H,7H-[1,3]thiazolo[5,4-c]pyridin-2-yl}amino)methyl]cyclobutan-1-ol] | < 5 | < 1
20 | Nc1nc2c(s1)CN(C(=O)c1cc3cccc(Br)c3[nH]1)CC2 [Example 171, 5-(7-bromo-1H-indole-2-carbonyl)-4H,5H,6H,7H-[1,3]thiazolo[5,4-c]pyridin-2-amine] | < 5 | < 1
21 | CCc1cccc2[nH]c(C(=O)N3CCc4nc(NC(=O)C5CCOCC5)sc4C3)cc12 [Example 334, N-[5-(4-ethyl-1H-indole-2-carbonyl)-4H,5H,6H,7H-[1,3]thiazolo[5,4-c]pyridin-2-yl]oxane-4-carboxamide] | < 5 | < 1
22 | CCc1cc(F)cc2[nH]c(C(=O)N3CCc4nc(N[C@H]5CC[C@@H](O)CC5)sc4C3)cc12 [Example 394, (1s,4s)-4-{[5-(4-ethyl-6-fluoro-1H-indole-2-carbonyl)-4H,5H,6H,7H-[1,3]thiazolo[5,4-c]pyridin-2-yl]amino}cyclohexan-1-ol] | < 5 | < 1
23 | CN(C)c1nc2c(s1)CN(C(=O)c1cc3ccccc3[nH]1)CC2 [Example 204, 5-(1H-indole-2-carbonyl)-N,N-dimethyl-4H,5H,6H,7H-[1,3]thiazolo[5,4-c]pyridin-2-amine] | < 100 | 1 to 10
24 | COCC1(C(=O)Nc2nc3c(s2)CN(C(=O)c2cc4ccccc4[nH]2)CC3)CC1 [Example 330, N-[5-(1H-indole-2-carbonyl)-4H,5H,6H,7H-[1,3]thiazolo[5,4-c]pyridin-2-yl]-1-(methoxymethyl)cyclopropane-1-carboxamide] | 5 to 10 | < 1
